Experimental data published in patent US20230026616A1, “PYRIMIDOIMIDAZOLE COMPOUNDS USED AS DNA-PK INHIBITORS” (MEDSHINE DISCOVERY INC., priority 2019, published 2023).

What was measured:
[1] = tested on: human non-small cell lung cancer NCI-H1703 cell subcutaneous xenograft tumor; experiment: In vivo pharmacodynamics, NCI-H1703 subcutaneous xenograft tumor model; parameters: species or system BALB/c nude mice; conditions: for Tumor volume (Day 0): Day 0 (baseline), Mean ± SEM; for Tumor volume (Day 21): Day 21, Mean ± SEM; for T/Cweight: day 21; for Tumor weight (PG-D21): day 21, Mean ± SEM
Experimental: Experimental purpose: To study the in vivo pharmacodynamics of the test compounds in BALB/c nude mice model with human non-small cell lung cancer NCI-H1703 cell subcutaneous xenograft tumor
Experimental animals: Female BALB/c nude mice, 6-8 weeks old, weighing 18-22 grams; supplier: Shanghai Sippe-Bk Lab Animal Co., Ltd.
Human non-small cell lung cancer NCI-H1703 cells were cultured in vitro in RPMI1640 medium with 10% fetal bovine serum, 100 U/mL penicillin and 100 μg/mL streptomycin at 37° C. in a 5% CO2 incubator. Conventional digestion with trypsin-EDTA was performed twice a week for passage. When the cell saturation was 80%-90% and the number reached the requirement, the cells were collected, counted, and seeded.
0.2 mL (5×10^6 cells) NCI-H1703 cells (added with matrigel, volume ratio of 1:1) were subcutaneously inoculated into the right back of each mouse, and the group administration started when the average tumor volume reached about 130 mm^3.
Compound 5 was prepared into 3 mg/mL, 6 mg/mL, 9 mg/mL suspension solutions, and compound 17 was prepared into 9 mg/mL suspensions, and the solvent was 0.5% HPMC+1% Tween 80.
Tumor diameters were measured with vernier calipers twice a week. The calculation formula of tumor volume is: V=0.5a×b^2, wherein a and b represent the long and short diameters of the tumor, respectively.
The antitumor efficacy of the compounds was evaluated by TGI (%) or relative tumor proliferation rate T/C (%). Relative tumor proliferation rate T/C (%)=TRTV/CRTV×100% (TRTV: means RTV in the treatment group; CRTV: means RTV in the negative control group). The relative tumor volume (RTV) was calculated according to the results of tumor measurement. The calculation formula is RTV=Vt/V0, wherein V0 is the tumor volume measured at the time of group administration (i.e., day 0), and Vt is the tumor volume at one measurement. Data of the same day was taken for TRTV and CRTV.
TGI (%), reflecting tumor growth inhibition rate. TGI (%)=[1−(average tumor volume at the end of administration of a certain treatment group-average tumor volume at the beginning of administration of this treatment group)/(average tumor volume at the end of treatment in the solvent control group-average volume at the beginning of treatment in the solvent control group tumor volume)]×100%. After the experiment, the tumor weight was detected, and the T/weight percentage was calculated. T weight and C weight represent the tumor weight of the administration group and the solvent control group, respectively.
Statistical analysis was performed using SPSS software based on RTV data at the end of the experiment. […] T-test was used to analyze the comparison between two groups, and one-way ANOVA was used to analyze the comparison between three or more groups. If the variance was homogeneous (F value had no significant difference), Tukey's method was used for analysis. If the variance was not homogeneous (F value had significant difference), the Games-Howell method was used to test. p<0.05 was considered a significant difference.

Human DNA-PK = target: T1, Human DNA-PK (Homo sapiens, UniProt P78527); experiment: DNA-dependent protein kinase (DNA-PK) inhibitory activity screening (Eurofins, HTRF); assay type: biochemical; conditions: ATP: 10 μM; read-out: DNA-PK kinase inhibition IC50
T1 construct: purchased Eurofins (Eurofins Pharma Discovery Service)
Experimental: Experimental Embodiment 1: DNA-Dependent Protein Kinase (DNA-PK) Inhibitory Activity Screening Experiment
This experiment was tested in the Eurofins
Human DNA-PK; Mg/ATP; GST-cMyc-p53; EDTA; Ser15 antibody; ATP: 10 μM.
Experimental Method (Eurofins Pharma Discovery Service):
DNA-PK (h) was incubated in assay buffer containing 50 nM GST-cMyc-p53 and Mg/ATP (according to the required concentration). The reaction was initiated by adding Mg/ATP mixture. After 30 minutes of incubation at room temperature, the reaction was stopped by adding a stop solution containing EDTA. Finally, detection buffer (containing labeled anti-GST monoclonal antibody and europium-labeled anti-Ser15 antibody against phosphorylated p53) was added. The plate was then read in time-resolved fluorescence mode, and the homogeneous time-resolved fluorescence (HTRF) signal was determined according to the formula HTRF=10000×(Em665 nm/Em620 nm).

[2] = Pharmacokinetic evaluation in Beagle dogs; assay type: in vivo, Male Beagle dogs; conditions: for Tlast / AUC(0-t) / C0 / clearance / half-life / Vd / Cmax / Tmax: Beagle dog plasma; for F: Beagle dog, PO 5 mpk vs IV 1 mpk; for AUC(0-t) / C0 / clearance / half-life / Vd / Cmax / Tmax: male; for Vd: read-out: Vdss
Source text: IV: intravenous injection; PO: oral; C0: instantaneous […] concentration after intravenous injection; Cmax: highest plasma concentration after administration; Tmax: time required to reach peak of drug concentration after administration; T1/2: time required for the plasma drug concentration to decrease by half, Vdss: apparent volume of distribution, refers to the proportional constant of the drug dose in vivo and the blood drug concentration when the drug reaches a dynamic equilibrium in vivo. Cl: clearance rate, refers to the […] cleared from the body per unit time; Tlast: time at the last detection point; AUC0-last: area under the drug-time curve, refers to the area covered by the plasma concentration curve and the time axis; F: a measure of the speed and degree of drug absorption into the blood circulation, which is an important indicator for evaluating the degree of drug absorption.
Test compounds were mixed with 10% dimethyl sulfoxide/50% polyethylene glycol 200/40% water, vortexed and sonicated to prepare a nearly clear solution of 1 mg/mL, then filtered through a microporous membrane for next step. Male Beagle dogs were selected and administered intravenously with the candidate compound solution at a dose of 1 mg/kg. Test compounds were mixed with 10% dimethyl sulfoxide/50% polyethylene glycol 200/40% water, vortexed and sonicated to prepare a nearly clear solution of 1 mg/mL, then filtered with a microporous membrane for next step. Male Beagle dogs were selected and orally administered with the candidate compound solution at a dose of 5 mg/kg. Whole blood was collected for a certain period of time, and plasma was prepared, then drug concentration was detected by LC-MS/MS method, and pharmacokinetic parameters were calculated by Phoenix WinNonlin software (Pharsight, USA).

What does the source list for `Cc1cc2ncnn2cc1Nc1ncc2c(n1)n(N1CC3CCC(C1)O3)c(=O)n2C` [Compound 5]?
Tumor volume (Day 0) ([1]; 30 mg/kg twice a day): 131 ± 10 mm^3; RTV (Day 21) ([1]; 30 mg/kg twice a day): 7.57 ± 0.53; T/C (%) (Day 21) ([1]; 30 mg/kg twice a day): 79.3%; TGI (%) (Day 21) ([1]; 30 mg/kg twice a day): 20.6%; Tumor volume (Day 21) ([1]; 30 mg/kg twice a day): 979 ± 86 mm^3; tumor inhibitory effect compared with the blank control (in words) ([1]; 30 mg/kg, administered twice a day): certain tumor inhibitory effect; T/Cweight ([1]; 30 mg/kg): 79.6%; Tumor weight (PG-D21) ([1]; 30 mg/kg): 1.031 ± 0.095 g; Tumor volume (Day 0) ([1]; 60 mg/kg twice a day): 131 ± 10 mm^3; RTV (Day 21) ([1]; 60 mg/kg twice a day): 3.31 ± 0.51; T/C (%) (Day 21) ([1]; 60 mg/kg twice a day): 34.7%; TGI (%) (Day 21) ([1]; 60 mg/kg twice a day): 72.3%; Tumor volume (Day 21) ([1]; 60 mg/kg twice a day): 427 ± 64 mm^3; T/Cweight ([1]; 60 mg/kg): 36.0%; Tumor weight (PG-D21) ([1]; 60 mg/kg): 0.467 ± 0.078 g; tumor inhibitory effect compared with the blank control (in words) ([1]; 60 mg/kg, dosed twice a day): significant tumor inhibitory effect; Tumor volume (Day 0) ([1]; 90 mg/kg twice a day): 130 ± 10 mm^3; RTV (Day 21) ([1]; 90 mg/kg twice a day): 2.64 ± 0.45; T/C (%) (Day 21) ([1]; 90 mg/kg twice a day): 27.7%; TGI (%) (Day 21) ([1]; 90 mg/kg twice a day): 79.4%; Tumor volume (Day 21) ([1]; 90 mg/kg twice a day): 351 ± 64 mm^3; T/Cweight ([1]; 90 mg/kg): 29.2%; Tumor weight (PG-D21) ([1]; 90 mg/kg): 0.379 ± 0.069 g; tumor inhibitory effect compared with the blank control (in words) ([1]; 90 mg/kg, dosed twice a day): significant tumor inhibitory effect; dose dependence of the therapeutic effect ([1]; 30, 60, 90 mg/kg twice a day): dose-dependent; IC50 (Human DNA-PK): 1 nM; Tlast ([2]; IV 1 mpk): 24 h; Tlast ([2]; PO 5 mpk): 24 h; F [2]: 279%; AUC(0-t) ([2]; 1 mg/kg, IV 1 mpk): 4.96 µM·h; C0 ([2]; 1 mg/kg, IV 1 mpk): 1.82 µM; clearance ([2]; 1 mg/kg, IV 1 mpk): 8.26 mL/min/kg; half-life ([2]; 1 mg/kg, IV 1 mpk): 4.04 h; Vd ([2]; 1 mg/kg, IV 1 mpk): 1.87 L/kg; AUC(0-t) ([2]; 5 mg/kg, PO 5 mpk): 68.3 µM·h; Cmax ([2]; 5 mg/kg, PO 5 mpk): 9.27 µM; Tmax ([2]; 5 mg/kg, PO 5 mpk): 1.67 h; half-life ([2]; 5 mg/kg, PO 5 mpk): 4.27 h

What does the source list for `Cc1cc2nncn2cc1Nc1ncc2c(n1)n(N1CC3CCC(C1)O3)c(=O)n2C` [Compound 17]?
Tumor volume (Day 0) ([1]; 90 mg/kg twice a day): 130 ± 13 mm^3; RTV (Day 21) ([1]; 90 mg/kg twice a day): 3.19 ± 0.46; T/C (%) (Day 21) ([1]; 90 mg/kg twice a day): 33.4%; TGI (%) (Day 21) ([1]; 90 mg/kg twice a day): 71.6%; Tumor volume (Day 21) ([1]; 90 mg/kg twice a day): 435 ± 94 mm^3; T/Cweight ([1]; 90 mg/kg): 35.9%; Tumor weight (PG-D21) ([1]; 90 mg/kg): 0.466 ± 0.103 g; tumor inhibitory effect compared with the blank control (in words) ([1]; 90 mg/kg, dosed twice a day): significant tumor inhibitory effect; IC50 (Human DNA-PK): 0.5 nM; Tlast ([2]; IV 1 mpk): 24 h; Tlast ([2]; PO 5 mpk): 24 h; F [2]: 92.3%; AUC(0-t) ([2]; 1 mg/kg, IV 1 mpk): 6.82 µM·h; C0 ([2]; 1 mg/kg, IV 1 mpk): 1.45 µM; clearance ([2]; 1 mg/kg, IV 1 mpk): 5.89 mL/min/kg; half-life ([2]; 1 mg/kg, IV 1 mpk): 5.04 h; Vd ([2]; 1 mg/kg, IV 1 mpk): 1.58 L/kg; AUC(0-t) ([2]; 5 mg/kg, PO 5 mpk): 31.5 µM·h; Cmax ([2]; 5 mg/kg, PO 5 mpk): 4.94 µM; Tmax ([2]; 5 mg/kg, PO 5 mpk): 1.5 h; half-life ([2]; 5 mg/kg, PO 5 mpk): 4.27 h
